Here are results for ten molecules from patent US8222434B1, “Bactobolin analog and synthesis method thereof” (priority 2009, dated 2012).

Experiment [1] deals with BtaR2. Format: cell-based, B. thailandensis.
In the next experiment the test system is B. thailandensis JBT112. Type of experiment: cell-based, Burkholderia thailandensis.
The test system of experiment [2] is BtaR2. Type of experiment: cell-based, B. thailandensis. The conditions noted are these: 3 h.
For the next experiment, the system named is B. subtilis. Type of experiment: cell-based, Bacillus subtilis. The settings on record: disc soaked in sterile medium containing 2 μM 3OHC10-HSL; B. subtilis lawn.
A further experiment concerns E. coli ATCC25922. The experiment in a line: CLSI microtiter MIC assay. Type of experiment: cell-based, Escherichia coli. The conditions noted are these: 24 hours at 35° C., average from two independent experiments. On the procedure: (§1) To test the potency of bactobolins, antibiotic assays were carried out against the human pathogens MRSA, VRE and V. parahaemo-lyticus, and against B. subtilis and E. coli (Table 3-C).
(§2) The minimum inhibitory concentrations (MIC) of each bactobolin was determined according to the 2003 guidelines of the Clinical and Laboratory Standards Institute (CLSI, formerly NCCLS) using the microtiter MIC method. Inocula for each test organism were prepared by suspending a colony from an LB agar plate into Tryptic Soy Broth and growing for 3-5 hours at 35° C. with shaking, then adjusting the culture turbidity in PBS to the equivalent of a 1.0 McFarland Standard (3×10^8 CFU/ml). These cell suspensions were used as inocula for microtiter MIC assays. 2.5 μL inoculum, which corresponded to 1×10^6 cells, was added to a 200 μL well containing each bactobolin diluted in cation-adjusted Mueller-Hinton II broth (actual CFU/ml ranged from 5×104 to 1×106), and these were incubated without shaking for 24 hours at 35° C. The MIC was defined as the lowest concentration of bactobolin (μg/ml) in which bacterial growth in the well was not measurable by determining the turbidity at 595 nm (A595) on a 96-well plate reader. See Table S8 for strains used in these assays.

In the next experiment the test system is E. faecalis V583 (VRE). The experiment in a line: CLSI microtiter MIC assay. Format: cell-based, Enterococcus faecalis. The settings on record: 24 hours at 35° C., average from two independent experiments. On the procedure:
as §1, §2

The subject of a further experiment is B. subtilis 3610. The experiment in a line: CLSI microtiter MIC assay. Format: cell-based, Bacillus subtilis. The conditions noted are these: 24 hours at 35° C., average from two independent experiments. As to the method: as §1, §2
The subject of experiment [3] is V. parahaemolyticus LM5674. The experiment in a line: CLSI microtiter MIC assay. Type of experiment: cell-based, Vibrio parahaemolyticus. As to the method: as §1, §2
The subject of another experiment is S. aureus COL (MRSA). The experiment in a line: CLSI microtiter MIC assay. Format: cell-based, Staphylococcus aureus. The conditions noted are these: for Minimum Inhibitory Concentration (MIC): S. aureus COL (MRSA), 24 hours at 35° C., average from two independent experiments. As to the method:
as §1, §2

For experiment [4], the system named is MRSA, VRE and V. parahaemo-lyticus, B. subtilis and E. coli. The experiment in a line: Antibiotic assays of bactobolins, overall comparison. Type of experiment: cell-based. The conditions noted are these: comparison over Table 3-C strains. As to the method: as §1, §2
The subject of another experiment is translation. The conditions noted are these: relative to bactobolin; cited from earlier work.
For a further experiment, the system named is tumor. The conditions noted are these: relative to bactobolin; cited from earlier work.
For the next experiment, the system named is E. coli. The settings on record: relative to bactobolin; cited from earlier work.
Experiment [5] concerns B. thailandensis ΔbtaT (BD44). Type of experiment: cell-based, Burkholderia thailandensis.
The test system of experiment [6] is B. thailandensis ΔbtaI1, I2, I3 (JBT112). Type of experiment: cell-based, Burkholderia thailandensis.
The subject of experiment [7] is B. thailandensis E264 (wt). Format: cell-based, Burkholderia thailandensis.

“Also recorded” adds a separate entry of the source. Where only a bound is given, the exact number is not on record here.

For `CCCCCC(O)CC(=O)N[C@H]1CCOC1=O` (stereo partly shown) [Bactobolin 3OHC8-HSL], the “BtaR2-dependent induction of lacZ (1233 promoter)” value in the experiment with BtaR2 [1] is given as “sufficient for BtaR2-dependent induction of lacZ”. Further, the “Restoration of antibiotic production in JBT112” value (from here on “Restoration”) with B. thailandensis JBT112 was “requires exogenous 3OHC8-HSL or 3OHC10-HSL for antibiotic production”. Further, the “Activation of btaI2-lacZ transcription” value with BtaR2 [2] is reported as “Activation”.
On to `CCCCCCCC(O)CC(=O)N[C@H]1CCOC1=O` (stereo partly shown) [Bactobolin 3OHC10-HSL], for which, in the experiment on BtaR2 [1], the “BtaR2-dependent induction of lacZ (1233 promoter)” value was “sufficient for BtaR2-dependent induction of lacZ”. For the same molecule, the “antibiotic activity of acyl-HSL alone, diffusion disc” value with B. subtilis is given as “not an antimicrobial molecule; also recorded: does not have antibiotic activity”. Also, the “Restoration” value in the experiment with B. thailandensis JBT112 is reported as “requires exogenous 3OHC8-HSL or 3OHC10-HSL for antibiotic production”. In addition, the “Activation of btaI2-lacZ transcription” value in the experiment with BtaR2 [2] is recorded as “Activation”.
With `CCCCCCCC(=O)N[C@H]1CCOC1=O` [Bactobolin C8-HSL], in the experiment on B. thailandensis JBT112, the “Restoration” value was “unable to restore antibiotic production”. For the same molecule, in the experiment with BtaR2 [2], the “Activation of btaI2-lacZ transcription” value is recorded as “no detectable response”.
With `CCCCCCCCCC(=O)N[C@H]1CCOC1=O` [Bactobolin C10-HSL, N-decanoyl-HSL], the “Activation of btaI2-lacZ transcription” value in the experiment on BtaR2 [2] is given as “response”.
On the same count and under the same terms, the result for `CCCCCCCCCCCC(=O)N[C@H]1CCOC1=O` [Bactobolin C12-HSL, N-dodecanoyl-HSL] reads “response”.
Turning to `C[C@@H](N)C(=O)N[C@@H]1[C@@H]2C[C@H](O)CC(O)=C2C(=O)O[C@]1(C)C(Cl)Cl` [Bactobolin C], the “Minimum Inhibitory Concentration (MIC)” value was 25 µg/mL with E. coli ATCC25922; greater than 25 µg/mL with E. faecalis V583 (VRE); 12.5 µg/mL with B. subtilis 3610; 1.56 µg/mL in [3] (V. parahaemolyticus LM5674, 24 hours at 35° C., average from two independent experiments); 6.25 µg/mL in the experiment with S. aureus COL (MRSA). Further, the “Antibiotic effectiveness in words” value in experiment [3] (V. parahaemolyticus) is “effective against these strains, though to a lesser extent”; with S. aureus COL (MRSA) (MRSA) it was “effective against these strains, though to a lesser extent”.
On to `C[C@H](N)C(=O)N[C@@H](C)C(=O)N[C@@H]1[C@@H]2C[C@H](O)CC(O)=C2C(=O)O[C@]1(C)C(Cl)Cl` [Bactobolin D], for which the “Minimum Inhibitory Concentration (MIC)” value was greater than 100 µg/mL in the experiment with E. coli ATCC25922, 100 µg/mL in the experiment on B. subtilis 3610 and 37.5 µg/mL in the experiment on S. aureus COL (MRSA). In addition, the “Relative potency among bactobolins” value in experiment [4] was “weakest analog”.
In the case of `C[C@H](N)C(=O)N[C@@H]1[C@H]2C(=C(O)C[C@@H](O)[C@@H]2O)C(=O)O[C@@H]1C` [actinobolin], in the experiment with translation, the “less active than bactobolin, in vitro inhibition of translation” value is recorded as 1000 fold. In the experiment with tumor, the “less active than bactobolin, murine antitumor activity” value is listed as 900 fold. In addition, the “less active than bactobolin, E. coli kill-assays” value with E. coli is reported as 21 fold.
As for Bactobolin A, the “Minimum Inhibitory Concentration (MIC)” value with E. coli ATCC25922 was 6.25 µg/mL; in the experiment with E. faecalis V583 (VRE), greater than 25 µg/mL; in the experiment on B. subtilis 3610 it was 1.56 µg/mL; in the experiment on S. aureus COL (MRSA), 0.78 µg/mL. For the same molecule, the “Relative potency among bactobolins” value in experiment [4] was “more potent than bactobolins C and D”.
Consider Bactobolin B, for which the “Minimum Inhibitory Concentration (MIC)” value in the experiment with E. coli ATCC25922 amounted to 1.56 µg/mL; in the experiment on E. faecalis V583 (VRE) it was 25 µg/mL; with B. subtilis 3610 it was 0.39 µg/mL. Also, the “Bactobolin B MIC” value in experiment [5], in experiment [6] and in experiment [7] was greater than 25 µg/mL each time. In addition, the “Relative potency among bactobolins” value in [4] was “more potent than bactobolins C and D”.
